Experimental data published in the NIST ThermoML archive (doi:10.1021/je800325d).

Key:
[1] = 101.33 kPa, Liquid; for viscosity: Capillary tube (Ostwald / Ubbelohde) method
[2] = refractive index (Na D-line) (dimensionless); conditions: 101.33 kPa, Liquid, Standard Abbe refractometry
[3] = refractive index (Na D-line) (dimensionless); xn = mol fraction of the nth substance listed; conditions: 101 kPa, Liquid, Standard Abbe refractometry
[4] = xn = mol fraction of the nth substance listed; conditions: 101 kPa, Liquid

CCc1ccccc1 [ethylbenzene]
Conditions | mass density, [1] [kg/m3] | refractive index, [2] | viscosity, [1] [mPa·s]
303.15 K | 857.6 | 1.491 | 0.597
313.15 K | 849.2 | 1.4891 | 0.538

Cc1ccc(C)cc1 [1,4-dimethylbenzene]
Conditions | refractive index, [2] | viscosity, [1] [mPa·s]
303.15 K | 1.4911 | 0.566
313.15 K | 1.4902 | 0.517

[1], Pycnometric method
Conditions | mass density [kg/m3]
303.15 K | 852.1
313.15 K | 843.5

CC(=O)OCCC(C)C [3-methylbutyl ethanoate]
Conditions | refractive index, [2] | viscosity, [1] [mPa·s]
303.15 K | 1.3959 | 0.741
313.15 K | 1.3945 | 0.649

[1], Pycnometric method
Conditions | mass density [kg/m3]
303.15 K | 862.3
313.15 K | 852.8

COC(=O)c1ccccc1 [methyl benzoate]
Conditions | refractive index, [2] | viscosity, [1] [mPa·s]
303.15 K | 1.5127 | 1.679
313.15 K | 1.5083 | 1.414

[1], Pycnometric method
Conditions | mass density [kg/m3]
303.15 K | 1078.8
313.15 K | 1069.2

Cc1ccccc1C [1,2-dimethylbenzene]
Conditions | refractive index, [2] | viscosity, [1] [mPa·s]
303.15 K | 1.5001 | 0.695
313.15 K | 1.4981 | 0.621

[1], Pycnometric method
Conditions | mass density [kg/m3]
303.15 K | 871.5
313.15 K | 863.3

CC(=O)OCCC(C)C [3-methylbutyl ethanoate] + Cc1ccc(C)cc1
Conditions | mass density, [4] [kg/m3] | refractive index, [3] | viscosity, [4] [mPa·s]
303.15 K, x1 = 0.096 | 852.4 | 1.4821 | 0.573
303.15 K, x1 = 0.1713 | 853.6 | 1.4749 | 0.584
303.15 K, x1 = 0.2823 | 854.5 | 1.4645 | 0.6
303.15 K, x1 = 0.3819 | 856.7 | 1.4554 | 0.617
303.15 K, x1 = 0.4503 | 857.8 | 1.4495 | 0.628
303.15 K, x1 = 0.5438 | 858.1 | 1.4397 | 0.645
303.15 K, x1 = 0.6472 | 858.7 | 1.4293 | 0.664
303.15 K, x1 = 0.7467 | 859.7 | 1.4193 | 0.684
303.15 K, x1 = 0.8487 | 860.1 | 1.41 | 0.704
303.15 K, x1 = 0.9398 | 861 | 1.4017 | 0.722
313.15 K, x1 = 0.096 | 844.8 | 1.4811 | 0.517
313.15 K, x1 = 0.1713 | 845.9 | 1.474 | 0.525
313.15 K, x1 = 0.2823 | 846.3 | 1.4621 | 0.537
313.15 K, x1 = 0.3819 | 847.5 | 1.4523 | 0.549
313.15 K, x1 = 0.4503 | 848.7 | 1.4454 | 0.556
313.15 K, x1 = 0.5438 | 849.6 | 1.4356 | 0.57
313.15 K, x1 = 0.6472 | 850.1 | 1.4248 | 0.584
313.15 K, x1 = 0.7467 | 850.7 | 1.4147 | 0.6
313.15 K, x1 = 0.8487 | 851.3 | 1.4056 | 0.615
313.15 K, x1 = 0.9398 | 851.6 | 1.3984 | 0.634

Cc1cccc(C)c1 [1,3-dimethylbenzene]
Conditions | refractive index, [2] | viscosity, [1] [mPa·s]
303.15 K | 1.492 | 0.557
313.15 K | 1.4901 | 0.508

[1], Pycnometric method
Conditions | mass density [kg/m3]
303.15 K | 855.3
313.15 K | 847.1

COC(=O)c1ccccc1 [methyl benzoate] + Cc1ccc(C)cc1
Conditions | mass density, [4] [kg/m3] | refractive index, [3] | viscosity, [4] [mPa·s]
303.15 K, x1 = 0.0958 | 873 | 1.492 | 0.616
303.15 K, x1 = 0.2055 | 898.1 | 1.4939 | 0.693
303.15 K, x1 = 0.3011 | 919.3 | 1.4947 | 0.759
303.15 K, x1 = 0.399 | 940.9 | 1.4959 | 0.839
303.15 K, x1 = 0.4951 | 961.9 | 1.4969 | 0.922
303.15 K, x1 = 0.5988 | 984.4 | 1.4982 | 1.033
303.15 K, x1 = 0.6973 | 1006.2 | 1.5012 | 1.152
303.15 K, x1 = 0.7846 | 1024.4 | 1.5055 | 1.269
303.15 K, x1 = 0.9027 | 1056 | 1.5122 | 1.45
303.15 K, x1 = 0.948 | 1059.2 | 1.5104 | 1.561
313.15 K, x1 = 0.0958 | 864.7 | 1.4913 | 0.551
313.15 K, x1 = 0.2055 | 889.5 | 1.4922 | 0.609
313.15 K, x1 = 0.3011 | 911.1 | 1.4932 | 0.67
313.15 K, x1 = 0.399 | 932.3 | 1.4945 | 0.728
313.15 K, x1 = 0.4951 | 953.1 | 1.4952 | 0.803
313.15 K, x1 = 0.5988 | 975.7 | 1.4961 | 0.889
313.15 K, x1 = 0.6973 | 1000.4 | 1.4989 | 0.992
313.15 K, x1 = 0.7846 | 1013 | 1.5014 | 1.093
313.15 K, x1 = 0.9027 | 1047.3 | 1.5088 | 1.253
313.15 K, x1 = 0.948 | 1050.3 | 1.509 | 1.322
